Earlier results, collected in patent US20050063935A1, “Adsorbent for cytokine, method of adsorptive removal, and apparatus adsorptive removal” (priority 2002, published 2005).

Settings: octanol-water system; free ligand compound before immobilization

Row | SMILES | log P
1 | CCCCCCCCN [n-octylamine] | 2.90
2 | CCCCN [n-butylamine] | 0.97
